From the supplement of paper PMC10307832

The cell lines below were run with COc1cccc2c1C(=O)c1c(O)c3c(c(O)c1C2=O)C[C@@](O)(C(=O)CO)C[C@@H]3O[C@H]1C[C@H](N)[C@H](O)[C@H](C)O1 [Doxorubicin] + O=C(c1cc(Cc2n[nH]c(=O)c3ccccc23)ccc1F)N1CCN(C(=O)C2CC2)CC1 [Olaparib] (partner 8 µM) (assay: relative viability (nuclei count vs DMSO), 5 days (fraction); higher = more cells survive). Conditions: first compound 0.01 µM.
Summary of the method: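 A single step with final 0.05% Triton X-100, 1% formaldehyde and 1 ug/ml Hoechst fixed the cells and stained nuclei 5 days after treatment. Lung cancer cell lines in 1536-well plates had been treated by pin tool the day after seeding with one drug alone or a fixed anchor-drug dose plus five library-drug doses (not always all listed) in √10 steps, and nuclei were counted on 4× images. Relative viability is the ratio of nuclei in treated wells to nuclei in vehicle wells, taken as the median of duplicate plates.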
In the case of NCI-H358, the relative viability is reported as 0.347.
NCI-H322M was tested, and the relative viability was 0.745.
In the case of IA-LM, the relative viability is reported as 0.954.
HCC-78 was tested, and the relative viability was 1.04.
A549 gave a relative viability of 0.375.
For NCI-H522, the relative viability was 0.678.
LXF-289 gave a relative viability of 0.998.
In the case of BEN, the relative viability is reported as 0.897.
Work on HARA yielded a relative viability of 0.722.
SW 900 showed a relative viability of 0.894.
Work on HCC-827 yielded a relative viability of 0.66.
NCI-H520 was tested, and the relative viability was 0.313.
Work on LOU-NH91 yielded a relative viability of 0.899.
With NCI-H2023 the relative viability was 0.19.
Cell Line A-427 has a relative viability of 0.718.
NCI-H647 was tested, and the relative viability was 0.48.
For PC-3 [JPC-3], the relative viability was 1.17.
NCI-H1755 showed a relative viability of 0.818.
Cell Line NCI-H650 has a relative viability of 0.38.
With NCI-H3122 the relative viability was 0.58.
Work on NCI-H441 yielded a relative viability of 0.511.
With NCI-H1395 the relative viability was 0.466.
201T was tested, and the relative viability was 0.837.
For NCI-H1975, the relative viability was 0.728.
In the case of HOP-62, the relative viability is reported as 0.365.
In the case of NCI-H1299, the relative viability is reported as 0.952.
Cell Line NCI-H2405 has a relative viability of 0.788.
NCI-H1355 showed a relative viability of 0.694.
Work on NCI-H838 yielded a relative viability of 0.702.
For CAL-12T, the relative viability was 0.559.
NCI-H1666 showed a relative viability of 0.733.
For EPLC-272H, the relative viability was 0.832.
NCI-H2347 showed a relative viability of 0.544.
Work on NCI-H1915 yielded a relative viability of 0.249.
NCI-H1437 was tested, and the relative viability was 0.567.
NCI-H460 was tested, and the relative viability was 0.346.
In the case of NCI-H1792, the relative viability is reported as 0.473.
NCI-H2085 gave a relative viability of 0.828.
Work on HCC-15 yielded a relative viability of 0.692.
For NCI-H1944, the relative viability was 0.384.
EKVX gave a relative viability of 0.767.

Same assay, conditions: first compound 0.03162 µM
NCI-H2342 gave a relative viability of 0.371.
Work on RERF-LC-KJ yielded a relative viability of 0.3.
Work on NCI-H1651 yielded a relative viability of 0.184.
For EBC-1, the relative viability was 0.54.
With NCI-H1734 the relative viability was 0.435.
In the case of NCI-H2009, the relative viability is reported as 0.457.
With NCI-H596 the relative viability was 0.647.
For SK-LU-1, the relative viability was 0.359.
SW 1573 gave a relative viability of 0.0977.
Work on LCLC-97TM1 yielded a relative viability of 0.234.
Work on NCI-H661 yielded a relative viability of 0.542.
NCI-H2228 was tested, and the relative viability was 0.249.
For EMC-BAC-2, the relative viability was 0.317.
NCI-H2087 showed a relative viability of 0.443.
With Calu-6 the relative viability was 0.298.
Cell Line HCC-44 has a relative viability of 1.01.
With NCI-H1703 the relative viability was 0.222.
Work on NCI-H727 yielded a relative viability of 0.768.
With LK-2 the relative viability was 0.604.
For NCI-H2126, the relative viability was 0.941.
For NCI-H1648, the relative viability was 0.492.
With NCI-H1793 the relative viability was 0.566.
H3255 showed a relative viability of 0.48.
With COR-L23 the relative viability was 0.147.
Work on COR-L 105 yielded a relative viability of 0.497.
With LC-2-ad the relative viability was 0.707.
Work on LU99A yielded a relative viability of 0.274.
In the case of ChaGo-K-1, the relative viability is reported as 0.486.
In the case of NCI-H358, the relative viability is reported as 0.12.
NCI-H322M showed a relative viability of 0.542.
Work on IA-LM yielded a relative viability of 0.754.
In the case of HCC-78, the relative viability is reported as 0.799.
Work on A549 yielded a relative viability of 0.275.
NCI-H522 gave a relative viability of 0.638.
LXF-289 was tested, and the relative viability was 1.07.
BEN showed a relative viability of 0.938.
With HARA the relative viability was 0.718.
SW 900 gave a relative viability of 0.674.
For HCC-827, the relative viability was 0.62.
Cell Line NCI-H520 has a relative viability of 0.248.
Cell Line LOU-NH91 has a relative viability of 0.666.
In the case of NCI-H2023, the relative viability is reported as 0.0859.
A-427 showed a relative viability of 0.373.
NCI-H647 gave a relative viability of 0.0818.
In the case of PC-3 [JPC-3], the relative viability is reported as 0.897.
NCI-H1755 was tested, and the relative viability was 0.873.
NCI-H650 was tested, and the relative viability was 0.334.
NCI-H3122 gave a relative viability of 0.62.
NCI-H441 showed a relative viability of 0.235.
With NCI-H1395 the relative viability was 0.417.
201T was tested, and the relative viability was 0.856.
Work on NCI-H1975 yielded a relative viability of 0.575.
HOP-62 was tested, and the relative viability was 0.42.
With NCI-H1299 the relative viability was 0.942.
Work on NCI-H2405 yielded a relative viability of 0.465.
NCI-H1355 gave a relative viability of 0.704.
NCI-H838 showed a relative viability of 0.337.
Cell Line CAL-12T has a relative viability of 0.212.
For NCI-H1666, the relative viability was 0.602.
EPLC-272H gave a relative viability of 0.453.
NCI-H2347 gave a relative viability of 0.516.
NCI-H1915 showed a relative viability of 0.311.
Work on NCI-H1437 yielded a relative viability of 0.416.
NCI-H460 was tested, and the relative viability was 0.114.
Cell Line NCI-H1792 has a relative viability of 0.412.
For NCI-H2085, the relative viability was 0.92.
In the case of HCC-15, the relative viability is reported as 0.522.
NCI-H1944 showed a relative viability of 0.378.
In the case of EKVX, the relative viability is reported as 0.849.

Same assay, conditions: first compound 0.1 µM
NCI-H2342 gave a relative viability of 0.384.
RERF-LC-KJ gave a relative viability of 0.261.
NCI-H1651 was tested, and the relative viability was 0.198.
Cell Line EBC-1 has a relative viability of 0.284.
With NCI-H1734 the relative viability was 0.565.
NCI-H2009 showed a relative viability of 0.315.
With NCI-H596 the relative viability was 0.651.
Work on SK-LU-1 yielded a relative viability of 0.356.
Cell Line SW 1573 has a relative viability of 0.047.
LCLC-97TM1 showed a relative viability of 0.394.
In the case of NCI-H661, the relative viability is reported as 0.52.
NCI-H2228 was tested, and the relative viability was 0.179.
EMC-BAC-2 was tested, and the relative viability was 0.302.
NCI-H2087 showed a relative viability of 0.372.
With Calu-6 the relative viability was 0.197.
For HCC-44, the relative viability was 0.993.
NCI-H1703 showed a relative viability of 0.177.
NCI-H727 showed a relative viability of 0.753.
For LK-2, the relative viability was 0.653.
Cell Line NCI-H2126 has a relative viability of 0.907.
In the case of NCI-H1648, the relative viability is reported as 0.791.
With NCI-H1793 the relative viability was 0.88.
Work on H3255 yielded a relative viability of 0.424.
Work on COR-L23 yielded a relative viability of 0.131.
Cell Line COR-L 105 has a relative viability of 0.468.
LC-2-ad was tested, and the relative viability was 0.696.
Work on LU99A yielded a relative viability of 0.253.
With ChaGo-K-1 the relative viability was 0.442.
Work on NCI-H358 yielded a relative viability of 0.116.
Work on NCI-H322M yielded a relative viability of 0.508.
Work on IA-LM yielded a relative viability of 0.673.
HCC-78 was tested, and the relative viability was 0.701.
A549 was tested, and the relative viability was 0.264.
Work on NCI-H522 yielded a relative viability of 0.589.
LXF-289 was tested, and the relative viability was 1.15.
Work on BEN yielded a relative viability of 1.13.
In the case of HARA, the relative viability is reported as 0.759.
Cell Line SW 900 has a relative viability of 0.868.
In the case of HCC-827, the relative viability is reported as 0.579.
NCI-H520 showed a relative viability of 0.297.
With LOU-NH91 the relative viability was 0.462.
Cell Line NCI-H2023 has a relative viability of 0.0625.
A-427 gave a relative viability of 0.285.
Cell Line NCI-H647 has a relative viability of 0.124.
For PC-3 [JPC-3], the relative viability was 0.825.
In the case of NCI-H1755, the relative viability is reported as 0.896.
NCI-H650 showed a relative viability of 0.296.
Work on NCI-H3122 yielded a relative viability of 0.634.
With NCI-H441 the relative viability was 0.239.
NCI-H1395 was tested, and the relative viability was 0.4.
201T was tested, and the relative viability was 0.831.
